Values after ≈ are worked out from the molar mass of the structure shown.
Test system: Mycobacterium tuberculosis
Experiment: Antibacterial activity against multidrug resistant Mycobacterium tuberculosis
Type: functional

Compound `CCCCCCCCCCS(=O)(=O)CC(N)=O` has an MIC of 0.75 to 1.5 µg/mL (≈ 2.85 to 5.69 µM).

From ChEMBL document CHEMBL4346683 (Eur J Med Chem, 2019)
